Earlier results as cited in patent US20130102635A1, “Methods for Treating Disorders Associated with Hyperlipidemia in a Mammal” (priority 2005, published 2013).
“Also recorded” adds a separate entry of the source. Read-outs that look alike come from different tables or passages of the source.

How the values were obtained:
[1] = animal model for homozygous FH, for example at 25 mg/day
[2] = clinical studies, 80 mg/day or greater

Row | Structure (SMILES) | reduction of plasma cholesterol levels [1] | adverse events (patients, 25 mg/day BMS-201038) | adverse events (clinical studies, implitapide 80 mg/day or greater) | adverse events (implitapide 80 mg/day and 160 mg/day) | therapeutic effectiveness [2]
1 | O=C(NC1CCN(CCCCC2(C(=O)NCC(F)(F)F)c3ccccc3-c3ccccc32)CC1)c1ccccc1-c1ccc(C(F)(F)F)cc1 [BMS-201038, N-(2,2,2-Trifluorethyl)-9-[4-[4-[[[4′-(trifluoromethyl)[1,1′biphenyl]-2-Yl]carbonyl]amino]-1-piperidinyl]butyl] 9H-fluorene-9-carboxamide] | effectively reduced plasma cholesterol levels in a dose dependent manner | gastrointestinal disturbances, abnormalities in liver function, and hepatic steatosis; also recorded: gastrointestinal disorders, abnormalities in liver function and/or hepatic steatosis | – | – | –
2 | Cc1cc(C)c2c3ccccc3n(Cc3ccc([C@@H](C(=O)N[C@H](CO)c4ccccc4)C4CCCC4)cc3)c2n1 [implitapide, (2S)-2-cyclopentyl-2-[4-[(2,4-dimethyl-9H-pyrido[2,3-b]indol-9-yl)methyl]phenyl]-N-[(1S)-2-hydroxy-1-phenylethyl]ethanamide] | – | – | gastrointestinal disturbances, abnormalities in liver function, and hepatic steatosis | gastrointestinal disorders, abnormalities in liver function and/or hepatic steatosis | therapeutically effective
